According to paper PMC7479175, “Selection of Potent Inhibitors of Soluble Epoxide Hydrolase for Usage in Veterinary Medicine” (Frontiers in Veterinary Science, 2020):
Where two headings read alike, the source gives them in different places.

What was measured:
Dog sEH = biological target: T1, Dog sEH (Canis lupus familiaris, UniProt A0A8I3NJL8); test: Secondary screen (kinetic mode), PHOME substrate; assay type: biochemical; conditions: [I] = 100 nM, secondary kinetic mode screening; read-out: Dog sEH Inhibition (%) S.
T1 sequence (A0A8I3NJL8 1-556): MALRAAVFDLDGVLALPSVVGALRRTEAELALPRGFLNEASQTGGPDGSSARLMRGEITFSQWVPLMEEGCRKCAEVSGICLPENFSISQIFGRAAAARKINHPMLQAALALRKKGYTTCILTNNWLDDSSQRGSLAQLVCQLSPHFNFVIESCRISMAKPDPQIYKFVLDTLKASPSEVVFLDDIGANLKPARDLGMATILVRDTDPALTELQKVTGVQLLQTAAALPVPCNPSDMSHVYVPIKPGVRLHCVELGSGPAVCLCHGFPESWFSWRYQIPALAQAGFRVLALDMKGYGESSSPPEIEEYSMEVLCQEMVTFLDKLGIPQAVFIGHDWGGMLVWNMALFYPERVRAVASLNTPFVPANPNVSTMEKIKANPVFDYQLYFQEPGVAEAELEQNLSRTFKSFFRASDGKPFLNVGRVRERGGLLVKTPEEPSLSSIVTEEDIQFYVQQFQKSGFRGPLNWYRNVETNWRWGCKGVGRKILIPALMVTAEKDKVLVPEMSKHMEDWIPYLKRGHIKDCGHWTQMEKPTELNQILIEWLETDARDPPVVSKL

[1] = system: horses with chronic laminitis; conditions: 0.1–1 mg/kg i.v., ref [11]–[13]; cited from earlier work
[2] = Solubility of inhibitors in different solvents; assay type: physicochemical; conditions: thermodynamic from solid
Description: The un-dissolved compounds were filtered through a 0.22 μm centrifuge filter at 30 or 40°C and the supernatant further diluted 10-fold with methanol. The concentration of t-TUCB in the samples was determined by LC/MS/MS analysis as previously described ([15]).

dogs with osteoarthritis = system: dogs with osteoarthritis; design: method as in PMID 31214021; conditions: ref [14]; cited from earlier work

Question: For `O=C(NCCCCOc1ccc(F)cc1)NC12CC3CC(CC(C3)C1)C2` [1,707], which inhibition at 0.1 µM (Dog sEH) is on record?
Answer: The inhibition at 0.1 µM was 83%.

Question: Which adverse effects [1] does the source give for `O=C(Nc1ccc(OC(F)(F)F)cc1)N[C@H]1CC[C@H](Oc2ccc(C(=O)O)cc2)CC1` [1,728, trans-4-{4-[3-(4-trifluoromethoxy-phenyl)-ureido]-cyclohexyloxy}-benzoic acid] here?
Answer: Its adverse effects is “without observed adverse effects”.

Question: What about the reduction in pain [1] of the same compound?
Answer: Its reduction in pain is “significant and rapid reduction in pain”.

Question: What about the solubility at 24 h ([2]; aqueous buffer, Phosphate Buffer (0.1 M pH 7.4), 30°C, read-out: Solubility) of the same compound?
Answer: Its solubility at 24 h is 0.011 mM.

Question: And the solubility at 24 h ([2]; aqueous buffer, Phosphate Buffer (0.1 M pH 7.4), 40°C, read-out: Solubility in mg/mL)?
Answer: Its solubility at 24 h is 0.01 mg/mL.

Question: What about the solubility at 24 h ([2]; aqueous with cosolvent or surfactant or cyclodextrin, Tween 80, 30°C, read-out: Solubility) of the same compound?
Answer: Its solubility at 24 h is 18 mM.

Question: And the solubility at 24 h ([2]; aqueous with cosolvent or surfactant or cyclodextrin, Tween 80, 40°C, read-out: Solubility)?
Answer: The solubility at 24 h was 34 mM.

Question: And the solubility at 24 h ([2]; oil or lipid, Oleic rich oil, 30°C, read-out: Solubility)?
Answer: Its solubility at 24 h is 0.31 mM.

Question: And the solubility at 24 h ([2]; oil or lipid, Oleic rich oil, 30°C, read-out: Solubility in mg/mL)?
Answer: The solubility at 24 h was 0.13 mg/mL.

Question: What about the solubility at 24 h ([2]; oil or lipid, Oleic rich oil, 40°C, read-out: Solubility in mg/mL) of the same compound?
Answer: Its solubility at 24 h is 0.1 mg/mL.

Question: What about the solubility at 24 h ([2]; organic solvent or mixture, Carbitol, 30°C, read-out: Solubility) of the same compound?
Answer: Its solubility at 24 h is 83 mM.

Question: What about the solubility at 24 h ([2]; organic solvent or mixture, Carbitol, 30°C, read-out: Solubility in mg/mL) of the same compound?
Answer: Its solubility at 24 h is 37 mg/mL.

Question: And the solubility at 24 h ([2]; organic solvent or mixture, DMSO, 30°C, read-out: Solubility)?
Answer: Its solubility at 24 h is 299 mM.

Question: What about the solubility at 24 h ([2]; organic solvent or mixture, DMSO, 30°C, read-out: Solubility in mg/mL) of the same compound?
Answer: Its solubility at 24 h is 131 mg/mL.

Question: What about the solubility at 24 h ([2]; organic solvent or mixture, DMSO, 40°C, read-out: Solubility) of the same compound?
Answer: Its solubility at 24 h is 580 mM.

Question: What about the solubility at 24 h ([2]; organic solvent or mixture, DMSO, 40°C, read-out: Solubility in mg/mL) of the same compound?
Answer: Its solubility at 24 h is 254 mg/mL.

Question: And the solubility at 24 h ([2]; organic solvent or mixture, Ethanol, 30°C, read-out: Solubility)?
Answer: Its solubility at 24 h is 9 mM.

Question: What about the solubility at 24 h ([2]; organic solvent or mixture, Ethanol, 30°C, read-out: Solubility in mg/mL) of the same compound?
Answer: The solubility at 24 h was 4 mg/mL.

Question: And the solubility at 24 h ([2]; organic solvent or mixture, Ethanol, 40°C, read-out: Solubility)?
Answer: Its solubility at 24 h is 32 mM.

Question: And the solubility at 24 h ([2]; organic solvent or mixture, Ethanol, 40°C, read-out: Solubility in mg/mL)?
Answer: Its solubility at 24 h is 14 mg/mL.

Question: What about the solubility at 24 h ([2]; organic solvent or mixture, Glycerol, 30°C, read-out: Solubility) of the same compound?
Answer: The solubility at 24 h was 0.13 mM.

Question: What about the solubility at 24 h ([2]; organic solvent or mixture, Glycerol, 30°C, read-out: Solubility in mg/mL) of the same compound?
Answer: Its solubility at 24 h is 0.06 mg/mL.

Question: And the solubility at 24 h ([2]; organic solvent or mixture, Glycerol, 40°C, read-out: Solubility)?
Answer: The solubility at 24 h was 0.41 mM.

Question: And the solubility at 24 h ([2]; organic solvent or mixture, Glycerol, 40°C, read-out: Solubility in mg/mL)?
Answer: The solubility at 24 h was 0.18 mg/mL.

Question: What about the solubility at 24 h ([2]; organic solvent or mixture, PEG200, 30°C, read-out: Solubility) of the same compound?
Answer: The solubility at 24 h was 195 mM.

Question: And the solubility at 24 h ([2]; organic solvent or mixture, PEG200, 30°C, read-out: Solubility in mg/mL)?
Answer: The solubility at 24 h was 85 mg/mL.

Question: What about the solubility at 24 h ([2]; organic solvent or mixture, PEG200, 40°C, read-out: Solubility) of the same compound?
Answer: Its solubility at 24 h is 207 mM.

Question: And the solubility at 24 h ([2]; organic solvent or mixture, PEG200, 40°C, read-out: Solubility in mg/mL)?
Answer: Its solubility at 24 h is 91 mg/mL.

Question: What about the solubility at 24 h ([2]; organic solvent or mixture, PEG300, 40°C, read-out: Solubility) of the same compound?
Answer: Its solubility at 24 h is 254 mM.

Question: What about the solubility at 24 h ([2]; organic solvent or mixture, PEG300, 40°C, read-out: Solubility in mg/mL) of the same compound?
Answer: Its solubility at 24 h is 111 mg/mL.

Question: And the solubility at 24 h ([2]; organic solvent or mixture, PEG400, 30°C, read-out: Solubility)?
Answer: The solubility at 24 h was 40 mM.

Question: And the solubility at 24 h ([2]; organic solvent or mixture, PEG400, 30°C, read-out: Solubility in mg/mL)?
Answer: The solubility at 24 h was 18 mg/mL.

Question: And the solubility at 24 h ([2]; organic solvent or mixture, PEG400, 40°C, read-out: Solubility)?
Answer: Its solubility at 24 h is 57 mM.

Question: And the solubility at 24 h ([2]; organic solvent or mixture, PEG400, 40°C, read-out: Solubility in mg/mL)?
Answer: The solubility at 24 h was 25 mg/mL.

Question: And the solubility at 24 h ([2]; organic solvent or mixture, Propylene glycol, 30°C, read-out: Solubility)?
Answer: Its solubility at 24 h is 9 mM.

Question: And the solubility at 24 h ([2]; organic solvent or mixture, Propylene glycol, 30°C, read-out: Solubility in mg/mL)?
Answer: The solubility at 24 h was 4 mg/mL.

Question: What about the solubility at 24 h ([2]; organic solvent or mixture, Propylene glycol, 40°C, read-out: Solubility) of the same compound?
Answer: Its solubility at 24 h is 14 mM.

Question: What about the solubility at 24 h ([2]; organic solvent or mixture, Propylene glycol, 40°C, read-out: Solubility in mg/mL) of the same compound?
Answer: The solubility at 24 h was 6 mg/mL.

Question: And the solubility at 24 h ([2]; organic solvent or mixture, Tween 80, 30°C, read-out: Solubility in mg/mL)?
Answer: Its solubility at 24 h is 8 mg/mL.

Question: And the solubility at 24 h ([2]; organic solvent or mixture, Tween 80, 40°C, read-out: Solubility in mg/mL)?
Answer: The solubility at 24 h was 15 mg/mL.

Question: What about the solubility at 24 h ([2]; organic solvent or mixture, such as Carbitol and polyethylene glycol (PEG), read-out: solubility in numerous organic liquids used in the formulation of drugs) of the same compound?
Answer: Its solubility at 24 h is over 20 mg/mL.

Question: What about the pain perception (dogs with osteoarthritis) of the same compound?
Answer: Its pain perception is “able to reduce pain perception”.

Question: With `N#CNC(=O)CCCCCCCCCCCNC(=O)NC12CC3CC(CC(C3)C1)C2` [1,845] as the compound, how does the inhibition at 0.1 µM (Dog sEH) read?
Answer: The inhibition at 0.1 µM was 83%.
